Data from article PMC12202533, “Mechanistic Insights and Anti-cancer Activity of 2H-benzo[b][1,4]oxazin-3(4H)-one Linked 1,2,3-Triazoles in Human Cancer Cells” (Frontiers in Pharmacology, 2025).
Read-outs that look alike come from different tables or passages of the source.

Tests used:
[1] = test system: A549; test: CCK-8 cell viability assay and IC50 measurement; type: cell-based, human; settings: for viability at 40 µM / IC50 / inhibition at 40 µM: Homo sapiens; for viability at 40 µM / inhibition at 40 µM: A549, 40 μM, 48 h; for viability at 40 µM: CCK-8, read-out: Cell viability (100%), 40 μM, 48 h, A549; for inhibition at 40 µM: read-out: inhibition rate
Method: (§1) In order to investigate the anticancer activity of new synthetic 1,4-benzoxazinone-linked 1,2,3-triazole compounds, we chose several cancer cell lines, including A549 (lung), Huh7 (liver), MCF-7 (breast), HCT-116 (colon), and SKOV3 (ovary), and measured cell viability using the CCK-8 assay. Cells were exposed to 40 μM of the compounds for 48 h, and then cell viability was determined. […] In addition, we used the reference drug gefitinib as a positive control and measured its cell viability on different cell lines. […] We used BEAS-2B cells as a normal cell line to determine the toxic effects of these compounds on normal cells. […] Furthermore, we evaluated the IC50 of these compounds in A549.
(§2) Human cancer cell lines A549, Huh7, MCF-7, HCT-116, and SKOV3 were obtained from ATCC. The cells were cultured in DMEM or RPMI 1640 medium supplemented with 10% FBS and 1% penicillin/streptomycin and incubated at 37°C in a CO2-humidified atmosphere.
(§3) Cells were cultured in DMEM or RPMI 1640 medium containing 10% FBS and 1% penicillin/streptomycin at 37°C and 5% CO2. The CCK-8 assay was performed on several human cancer cell lines, including A549, Huh7, MCF-7, HCT-116, and SKOV3, according to the manufacturer’s instructions. Cells were plated at a density of 5 × 10^3 cells per well in a 96-well plate. After 24 h of incubation, cells were treated with 40 μM compounds for 48 h. Cell viability was assessed by adding 10 μL of CCK-8 reagent, dissolved in the cell culture medium, and incubating for 1 h. Absorbance was measured at 450 nm using a microplate reader. IC50 values were determined using a dose-response curve with six concentrations (0, 10, 20, 40, 80, and 160 μM), and IC50 values were calculated using GraphPad Prism software.

[2] = CCK-8 cell viability assay, normal cell line; type: cell-based; settings: human, BEAS-2B cells (normal cell line), BEAS-2B normal cell line, read-out: Cell viability (100%), 40 μM, 48 h, BEAS-2B
Method: as §1, §3

[3] = test system: MCF-7; test: CCK-8 cell viability assay; type: cell-based; settings: Homo sapiens, MCF7, MCF-7, 40 μM, 48 h, read-out: Cell viability (100%), 40 μM, 48 h, MCF-7
Method: as §1, §2, §3

[4] = test system: Huh7; test: CCK-8 cell viability assay; type: cell-based; settings: Homo sapiens, Huh-7, Huh7, 40 μM, 48 h, read-out: Cell viability (100%), 40 μM, 48 h, Huh7
Method: as §1, §2, §3

[5] = test system: SKOV3; test: CCK-8 cell viability assay; type: cell-based; settings: Homo sapiens, SK-OV-3, SKOV3, 40 μM, 48 h, read-out: Cell viability (100%), 40 μM, 48 h, SKOV3
Method: as §1, §2, §3

[6] = test system: HCT-116; test: CCK-8 cell viability assay; type: cell-based; settings: Homo sapiens, HCT-116, 40 μM, 48 h, read-out: Cell viability (100%), 40 μM, 48 h, HCT-116
Method: as §1, §2, §3

[7] = A549, 48 h, read-out: IC50 48 h
[8] = A549, 72 h, read-out: IC50 72 h

Row | Structure (SMILES) | viability at 40 µM [1] | viability at 48 h, 40 µM [2] | viability at 40 µM [3] | viability at 40 µM [4] | viability at 40 µM [5] | viability at 40 µM [6] | IC50 [1, 7] | IC50 [1, 8] | inhibition at 40 µM [1] | activity on A549 cells (in words) ([1]; A549, CCK-8)
1 | O=C1COc2ccc(NC(=O)c3cccc(-c4cn(Cc5ccc(I)cc5)nn4)c3)cc2N1 [Compound 13s] | 128.8 ± 1.19% | 94.7 ± 1.56% | 127 ± 3.34% | 137 ± 1.61% | 118 ± 1.64% | 150.6 ± 1.11% |  |  |  | 
2 | O=C1COc2ccc(NC(=O)c3cccc(-c4cn(Cc5cc(F)c(F)c(F)c5)nn4)c3)cc2N1 [Compound 13c] | 63 ± 1% | 101 ± 1.59% | 91.4 ± 2.78% | 110 ± 1.2% | 88.5 ± 1.16% | 68.2 ± 3.35% | > 100 µM | 64 ± 6.77 µM |  | 
3 | O=C1COc2ccc(NC(=O)c3cccc(-c4cn(Cc5cccc(Cl)c5)nn4)c3)cc2N1 [Compound 13g] | 99.5 ± 3% | 103.1 ± 0.72% | 104.5 ± 0.28% | 104 ± 3.8% | 109 ± 2.06% | 89.8 ± 1.75% |  |  |  | 
4 | O=C1COc2ccc(NC(=O)c3cccc(-c4cn(Cc5cccc(C(F)(F)F)c5)nn4)c3)cc2N1 [Compound 13m] | 126 ± 1.9% | 107.9 ± 0.77% | 127 ± 1.71% | 124 ± 3.41% | 126 ± 2.44% | 144 ± 2.31% |  |  |  | 
5 | O=C1COc2ccc(NC(=O)c3cccc(-c4cn(Cc5ccc(F)cc5Cl)nn4)c3)cc2N1 [Compound 13t] | 96.6 ± 2.07% | 103 ± 2.67% | 97.9 ± 2.53% | 101 ± 3.53% | 97.2 ± 1.54% | 114 ± 1.76% |  |  |  | 
6 | O=C1COc2ccc(NC(=O)c3cccc(-c4cn(Cc5ccc(F)c(Cl)c5)nn4)c3)cc2N1 [Compound 13f] | 44.5 ± 3.23% | 124 ± 3.82% | 85.5 ± 2.2% | 88.4 ± 1.3% | 83.7 ± 1.74% | 68 ± 5.4% | 55.2 ± 1.56 µM | 53.3 ± 6.64 µM | > 50% | 
7 | O=C1COc2ccc(NC(=O)c3cccc(-c4cn(Cc5c(F)cccc5Cl)nn4)c3)cc2N1 [Compound 13e] | 45.95 ± 0.35% | 108 ± 1.19% | 120 ± 3.06% | 126 ± 1.82% | 85.8 ± 4.65% | 60.9 ± 1.95% | > 100 µM | 64.7 ± 7.35 µM | > 50% | 
8 | O=C1COc2ccc(NC(=O)c3cccc(-c4cn(Cc5cc(Cl)ccc5F)nn4)c3)cc2N1 [Compound 13h] | 44.1 ± 2.78% | 125 ± 1.84% | 94.2 ± 2.87% | 105 ± 2.37% | 89.7 ± 5.2% | 80.4 ± 3% | 51.1 ± 2.54 µM | 49 ± 4.27 µM | > 50% | 
9 | COc1cc2ncnc(Nc3ccc(F)c(Cl)c3)c2cc1OCCCN1CCOCC1 [Gefitinib, reference compound] | 31.1 ± 0.73% | 82.11 ± 0.74% | 63.73 ± 0.62% | 55 ± 0.76% | 84.25 ± 0.32% | 75.2 ± 1.66% |  |  |  | effective activity on A549 cells
10 | O=C1COc2ccc(NC(=O)c3cccc(-c4cn(Cc5cc(Br)cc(Br)c5)nn4)c3)cc2N1 [Compound 13k] | 140.65 ± 0.11% | 112 ± 1.63% | 141 ± 1.94% | 129 ± 2% | 135 ± 2.4% | 152 ± 3.5% |  |  |  | 
11 | O=C1COc2ccc(NC(=O)c3cccc(-c4cn(-c5cc(Cl)ccc5F)nn4)c3)cc2N1 [Compound 14g] | 28.2 ± 0.55% | 103 ± 4.98% | 45.5 ± 0.99% | 75.3 ± 1.09% | 87.6 ± 1.3% | 74.8 ± 1.72% |  |  | > 50% | 
12 | O=C1COc2ccc(NC(=O)c3cccc(-c4cn(-c5cccc(Cl)c5)nn4)c3)cc2N1 [Compound 14d] | 29.01 ± 0.13% | 118 ± 2.43% | 120 ± 2.54% | 141.3 ± 1.17% | 90.5 ± 3.81% | 134 ± 3.97% | 38.7 ± 14.9 µM | 34.8 ± 1.96 µM | > 50% | 
13 | O=C1COc2ccc(NC(=O)c3cccc(-c4cn(-c5ccc(C(F)(F)F)cc5)nn4)c3)cc2N1 [Compound 14a] | 88.4 ± 7.15% | 111.6 ± 0.81% | 101 ± 3.09% | 114 ± 1.46% | 103 ± 2.87% | 110 ± 5.19% |  |  |  | 
14 | O=C1COc2ccc(NC(=O)c3cccc(-c4cn(Cc5ccccc5F)nn4)c3)cc2N1 [Compound 13j] | 53.6 ± 2.43% | 125.8 ± 0.46% | 107 ± 2.73% | 97.2 ± 2.59% | 92.73 ± 0.81% | 60.3 ± 1.3% | 43.5 ± 5.67 µM | 35.3 ± 5.81 µM |  | 
15 | N#Cc1ccc(F)cc1Cn1cc(-c2cccc(C(=O)Nc3ccc4c(c3)NC(=O)CO4)c2)nn1 [Compound 13d] | 133 ± 1.67% | 96.6 ± 2.6% | 137 ± 1.49% | 126 ± 1.71% | 120 ± 1.47% | 135 ± 3.97% |  |  |  | 
16 | O=C1COc2ccc(NC(=O)c3cccc(-c4cn(Cc5ccc(Br)cc5F)nn4)c3)cc2N1 [Compound 13l] | 57 ± 2.02% | 101.5 ± 0.49% | 105 ± 2.42% | 119 ± 2.06% | 91.6 ± 2.21% | 110 ± 5.15% | > 100 µM | 79.2 ± 6.11 µM |  | 
17 | O=C1COc2ccc(NC(=O)c3cccc(-c4cn(Cc5ccc(C(F)(F)F)cc5)nn4)c3)cc2N1 [Compound 13p] | 94.7 ± 6.71% | 102 ± 4.05% | 113 ± 1.67% | 119 ± 1.7% | 104 ± 1.06% | 120 ± 2.54% |  |  |  | 
18 | O=C1COc2ccc(NC(=O)c3cccc(-c4cn(-c5ccc(Br)cc5F)nn4)c3)cc2N1 [Compound 14f] | 39.6 ± 1.77% | 90.98 ± 0.38% | 74.2 ± 1.07% | 71.4 ± 1.66% | 79.8 ± 2.53% | 80.62 ± 0.6% |  |  | > 50% | 
19 | O=C1COc2ccc(NC(=O)c3cccc(-c4cn(-c5ccccc5Cl)nn4)c3)cc2N1 [Compound 14e] | 46.5 ± 2.68% | 97.5 ± 2.69% | 127 ± 1.89% | 134.1 ± 0.79% | 86.5 ± 4.84% | 118 ± 5.23% | 29.1 ± 1.15 µM | 27.8 ± 0.96 µM | > 50% | 
20 | O=C1COc2ccc(NC(=O)c3cccc(-c4cn(Cc5cccc(F)c5)nn4)c3)cc2N1 [Compound 13r] | 70 ± 2.73% | 96.3 ± 1.01% | 122 ± 2.48% | 131 ± 2.34% | 115.2 ± 0.67% | 74.9 ± 3.73% |  |  |  | 
21 | O=C1COc2ccc(NC(=O)c3cccc(-c4cn(Cc5ccc(Br)cc5)nn4)c3)cc2N1 [Compound 13a] | 105 ± 3.6% | 110 ± 1.16% | 107 ± 3.39% | 109 ± 2.48% | 104 ± 2.08% | 115 ± 4.01% |  |  |  | 
22 | O=C1COc2ccc(NC(=O)c3cccc(-c4cn(Cc5ccc(F)cc5)nn4)c3)cc2N1 [Compound 13i] | 130 ± 1.04% | 117 ± 2.34% | 124.6 ± 0.87% | 120 ± 2.62% | 124.2 ± 1.08% | 142.6 ± 0.97% |  |  |  | 
23 | O=C1COc2ccc(NC(=O)c3cccc(-c4cn(Cc5c(Cl)cccc5Cl)nn4)c3)cc2N1 [Compound 13n] | 55.6 ± 1.02% | 104.7 ± 0.69% | 122 ± 3.23% | 129.4 ± 0.81% | 89.3 ± 1.41% | 83.1 ± 1.96% | 88.6 ± 18 µM | 77 ± 6.21 µM |  | 
24 | O=C1COc2ccc(NC(=O)c3cccc(-c4cn(Cc5ccccc5Br)nn4)c3)cc2N1 [Compound 13q] | 29.3 ± 1.12% | 114.9 ± 0.85% | 97.9 ± 2.13% | 123 ± 1.89% | 89.5 ± 3.23% | 77.1 ± 2.31% | 29.4 ± 3.49 µM | 34.9 ± 5.25 µM | > 50% | 
